Tested on: YUSAC-2 melanoma cells
Test: Apoptosis in Tet-regulated YUSAC-2 transfectants (DNA content, TUNEL, caspase-9 Western blot)
Type: cell-based, human
Conditions: for G2/M and apoptotic (sub-G1) DNA content after transgene induction: stably transfected YUSAC-2 lines, Tet withdrawn (transgene expressed)
Description: Three YUSAC-2 melanoma cell lines stably transfected with survivin(T34A) in pTet splice were analyzed for DNA content by propidium iodide staining and flow cytometry in the presence (Tet+) or absence (Tet−) of Tet. The percentages of cells with sub-G1 (apoptotic) DNA content after a 3-d culture at 37° C. are indicated.
The experimental conditions are the same as in A, except that a subclone of YUSAC-2 transfectants, F5.C4 was analyzed in the presence (Tet+) or in the absence (Tet−) of Tet for internucleosomal DNA fragmentation by end-labeling with terminal deoxynucleotidyl transferase (TdT) and a peroxidase-conjugated anti-digoxigenin antibody.
Tet+ and Tet− F5.C4 cells characterized as described in FIG. 4, were harvested at the indicated time intervals after thymidine release and immunoblotted with an antibody to caspase-9. TNF+CHX, extract of HeLa cells treated with 10 ng/ml TNFα plus 10 μg/ml cycloheximide. Arrows, position of ˜46 kDa proform caspase-9, and ˜35 kDa and ˜37 kDa active caspase-9 bands.
Cells were then fixed, permeabilized and stained with propidium iodide for DNA content as described (Grossman et al., 1999). The marker indicates the sub-G1 fraction, corresponding to apoptotic cells.
Cells were fixed in 1% paraformaldehyde for 10 minutes at room temperature and then permeabilized with acetic acid and ethanol for 5 minutes at […]. Arrows indicate TUNEL-reactive (Shockett et al., 1995) cells with apoptotic morphology.
Transfection experiments. For transient transfection, HeLa cells in C-6 tissue culture plates (Costar, Cambridge, Mass.) at ˜60-70% confluency, were incubated in 1 ml of serum-free OptiMEM medium (Life Technologies, Gaithersburg, Md.) for 20 min, and transfected with 2.5 μg of the various plasmid cDNAs plus 9 μl Lipofectamine (Life Technologies). After a 5 h incubation at 37° C., the mixture was aspirated and substituted with complete growth medium for 48-72 h. To generate stable YUSAC-2 transfectants, a survivin(T34A) cDNA was inserted into the HindIII-SpeI sites of the pTet-splice vector (Dr. D. Schatz, Yale University School of Medicine), downstream of the regulatory sequences of the Tet-resistance operon (TetO). YUSAC-2 cells were transfected with 0.8 μg pTet-T34A, 0.8 μg of the transactivation/selection plasmid ptTA-Neo and 5 μl Lipofectamine in 1 ml of OptiMem. Forty-eight h after transfection, cells were re-plated at low density in 15×150 mm plates in growth medium containing 1.5 mg/ml Geneticin (G418, Life Technologies), 2 mM sodium hydroxide and 0.5 μg/ml Tet (Sigma, St. Louis, Mo.) (selection medium). […] Gated GFP-expressing cells were analyzed for DNA content by flow cytometry on a FACSort (Becton Dickinson, San Jose, Calif.) using a Cell Quest software. […]

survivin(T34A): dominant-negative, non-phosphorylatable survivin mutant with Thr34→Ala substitution, expressed from transfected cDNA (also HA- or GFP-tagged)
internucleosomal DNA fragmentation by TUNEL (F5.C4 cells, Tet-deprived): stained intensely for internucleosomal DNA fragmentation by TUNEL
caspase-9 processing by Western blotting (cell cycle synchronized Tet− F5.C4 cells after thymidine release): time-dependent cleavage of 46 kDa proform caspase-9 and generation of ˜35 kDa and ˜37 kDa active caspase-9 bands
G2/M and apoptotic (sub-G1) DNA content after transgene induction: nearly complete loss of mitotic (G2/M) cells, and appearance of a prominent population with apoptotic (sub-G1) DNA content
G2/M and apoptotic (sub-G1) DNA content after transgene induction (listed as Thr^34→Ala mutant): progressive time-dependent loss of mitotic (G2/M) cells and coincident accumulation of apoptotic cells

Source: patent US7553821B2, “Methods for selectively modulating survivin apoptosis pathways” (Yale University, priority 2000, dated 2009)
